IC50 and FIC index data for five compounds are collected here from PMC8966755, “In Silico and In Vitro Screening of Natural Compounds as Broad-Spectrum β-Lactamase Inhibitors against Acinetobacter baumannii New Delhi Metallo-β-lactamase-1 (NDM-1)” (BioMed Research International, 2022).

In one assay the target is β-lactamase. Description: β-Lactamase enzyme inhibitory activity assay. Type of assay: biochemical. The conditions noted are these: β-lactamase inhibition assay. As for the experimental part: . The percent inhibitory curves for the candidate natural compounds with efficacy for NDM-1 and β-lactamase enzyme are given in Figures 5(a) and 5(b). The natural compounds were incubated with NDM-1 enzyme, and the substrate, nitrocefin, and hydrolysis of the substrate were monitored at 490 nm OD.
The eight candidate natural compounds identified by in silico analysis against NDM-1 were also tested for β-lactamase inhibition assay. […]

The next assay concerns the target T1, Recombinant NDM-1 enzyme (Klebsiella pneumoniae, UniProt C7C422).
T1 construct: purchased RayBiotech Life 230-00554-500
The assay can be described thus: biochemical. As for the experimental part:
The NDM-1 enzyme inhibition assay was carried out spectrophotometrically using nitrocefin as a chromogenic substrate as described previously [27].
The natural compounds were incubated with NDM-1 enzyme, and the substrate, nitrocefin, and hydrolysis of the substrate were monitored at 490 nm OD.

Assay [1] relates to PAN resistance A. baumannii clinical isolate (strain number: P-29). Description: Checkerboard synergy titration assay with imipenem (FIC). In kind it is cell-based. The conditions noted are these: compound 128 mg/L with imipenem; carbapenem-resistant A. baumannii clinical strain. The procedure:
The combined effect of the natural compounds and imipenem (Zhejiang Hisun Pharmaceutical, China) was done using the checkerboard synergy titration assay in a 96-well microtitre plate. Imipenem was tested at concentrations of […] than their MIC and two dilutions higher than the MIC. MIC concentration of imipenem (4x) was added in all wells under column 1 of the 96-well checkerboard panel for each concentration of natural compounds (one each row). The compounds were serially diluted at different subinhibitory concentrations, and each concentration was added to the corresponding rows.
A FIC = 0.5 for a compound was taken as synergistic, FIC > 0.5 − 4 was additive/indifferent, and FIC > 4 was taken as antagonistic.
The checkerboard method was used to design the dilution panel, with twofold concentrations above the MIC of the antibiotics and MIC concentration and fivefold below the MIC.

Setting [2] is: 1 nM NDM-1, 10 μM ZnSO4, nitrocefin 60 μM, 490 nm, 30°C, compounds 10-100 μM, read-out: IC50 NDM-1 enzyme activity.

Where two headings read alike, the source gives them in different places.

T1 sequence (C7C422 29-270 limits assumed): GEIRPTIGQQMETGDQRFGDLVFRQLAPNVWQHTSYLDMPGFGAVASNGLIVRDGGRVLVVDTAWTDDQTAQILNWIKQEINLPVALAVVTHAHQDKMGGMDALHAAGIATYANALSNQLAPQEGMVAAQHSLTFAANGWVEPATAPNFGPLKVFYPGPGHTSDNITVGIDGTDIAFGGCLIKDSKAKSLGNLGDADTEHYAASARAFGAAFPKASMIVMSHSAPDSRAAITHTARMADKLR

With `COc1c(O)cc2oc3cc(O)c(CC=C(C)C)c(O)c3c(=O)c2c1CC=C(C)C` [Mangostin], the IC50 on β-lactamase was found to be 136 ± 37.1 µM; at Recombinant NDM-1 enzyme (setting [2]), 97.5 ± 5.59 µM.
As to `O=c1c2cc(O)c(O)cc2oc2cc(O)c([C@@H]3O[C@H](CO)[C@@H](O)[C@H](O)[C@H]3O)c(O)c12` [Mangiferin], the concentration for half-maximal inhibition (IC50) at β-lactamase turned out to be 58 ± 2.08 µM; on Recombinant NDM-1 enzyme, 30.6 ± 4.41 µM. Also, the FIC index in assay [1] stood at 0.625.
`C[C@@H]1O[C@@H](OC[C@H]2O[C@@H](Oc3c(-c4ccc(O)c(O)c4)oc4cc(O)cc(O)c4c3=O)[C@H](O)[C@@H](O)[C@@H]2O)[C@H](O)[C@H](O)[C@H]1O` [Rutin]: the IC50 on β-lactamase is 127 ± 15.9 µM; at Recombinant NDM-1 enzyme (setting [2]), 48.9 ± 3.74 µM.
`CC1(C)[C@H](C(=O)O)N2C(=O)C[C@H]2S1(=O)=O` [sulbactam, reference compound]: the IC50 against β-lactamase came out at 7.24 ± 0.392 µM.
Turning to `CC1=C(CO)C(=O)O[C@@H]([C@@H](C)[C@H]2CC[C@H]3[C@@H]4C[C@H]5O[C@]56[C@@H](O)C=CC(=O)[C@]6(C)[C@H]4CC[C@]23C)C1` [Withaferin A], the IC50 is 32.8 ± 2.59 µM against β-lactamase and 24 ± 2.92 µM at Recombinant NDM-1 enzyme. Moreover, in assay [1], the FIC index was found to be 0.3125.
